Reference: article PMC8748916, “Microbial enzymes induce colitis by reactivating triclosan in the mouse gastrointestinal tract” (Nature Communications, 2022)
“And” between values parts separate entries of the source, which are not always exact repeats. Equal values may be shown once.

Legend:
[1] = LC-MS/MS profiling of TCS metabolism in mice (TCS via diet for 4 weeks); conditions: for concentration of TCS, TCS-G, TCS-Sulfate: individual mice
[2] = LC-MS/MS of TCS and its metabolites in human stool and urine after use of TCS-containing personal care products; type: in vivo; conditions: for TCS metabolites in human stool / TCS metabolites in human urine: Treatment TCS, individual subjects; for average molar concentration ratio: TCS-exposed subjects;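 for Profile in stool (%): molar share of summed TCS plus TCS-G plus TCS-sulfate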;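 for Profile in urine (%): molar share of summed TCS plus TCS-G plus TCS-sulfate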;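 for average molar concentration ratio: molar share of summed TCS plus TCS-G plus TCS-sulfate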
Text: To broaden our understanding of TCS metabolic profiles in the gut, we next analyzed TCS metabolism in human subjects. We utilized urine and stool samples from a previous study in which the recruited human subjects were first subjected to a washout period (no usage of TCS-containing products), then were randomly assigned to two groups that used personal care products like toothpaste with or without TCS for up to four months (see the scheme of the experiment in Fig. 1c)[15]. Previous data had established that humans are primarily exposed to TCS via toothpaste that provides a direct oral route to the gastrointestinal tract[16],[17].

[3] = test system: enzymes extracted from human fecal samples; experiment: In fimo assay (TCS-G turnover rate by human fecal extracts); type: biochemical; conditions: Fig. 3c, replicates 1-3
Experimental: Fecal extracts were prepared and proteomic analysis was performed exactly as previously described. In total, 10 g of frozen human fecal sample was thawed and added to 25 mL extraction buffer (25 mM HEPES, 25 mM NaCl pH 6.5 with Roche Complete protease inhibitor tablet) and 0.5 g autoclaved garnet beads. The mixture was vortexed until homogenous and centrifuged at low speed (300 × g for 5 min at 4 °C). The supernatant was decanted. In all, 25 mL buffer was added to the pellet and the vortex and centrifugation steps repeated. The supernatants from these steps were then combined and centrifuged at low speed for two more cycles. The resultant supernatant was sonicated twice using 1 s pulses for 1.5 min and the lysate was centrifuged at 17,000 × g for 20 min in a Beckman Coulter J2-HC centrifuge. The decanted lysate was then washed with several exchanges of extraction buffer to remove metabolites and small molecules. Total protein concentration was quantitated using a Bradford assay. The fecal lysate was diluted to 1 mg/mL concentration and snap-frozen in small aliquots.
Reaction mixtures contained 5 µL fecal extract (0.1 mg/mL final), 30 µL TCS-G (200 µM final), and 15 µL assay buffer (25 mM HEPES, 25 mM NaCl, pH 6.5). Reactions were quenched at five time points with 50 µL 25% trichloroacetic acid. Samples were centrifuged 20 min at 16,000 × g in a tabletop centrifuge, and the supernatant was analyzed via the same HPLC method described for the catalytic efficiency assay. Reaction rates were determined by fitting progress curves using linear regression and are expressed as initial turnover rates (µM/s). Controls contained fecal extract that had been heat-killed at 95 °C for 5 min. Reported rates are the average of three biological replicates ±SEM.

[4] = treatment time 0 months (after washout)

With `O=S(=O)(O)Oc1cc(Cl)ccc1Oc1ccc(Cl)cc1Cl` [TCS-sulfate, triclosan-sulfate] the “concentration of TCS, TCS-G, TCS-Sulfate” value ([1]; Bile, 80 ppm TCS via diet 4 weeks) was 93.62 pmol/mg and 49.05 pmol/mg and 43.31 pmol/mg and 67.29 pmol/mg, the “concentration of TCS, TCS-G, TCS-Sulfate” value ([1]; Cecum (digesta), 80 ppm TCS via diet 4 weeks) was 0.12 pmol/mg and 0.13 pmol/mg and 0.09 pmol/mg and 0.35 pmol/mg and 0.29 pmol/mg and 0.53 pmol/mg and 0.56 pmol/mg and 0.38 pmol/mg and 0.61 pmol/mg and 0.54 pmol/mg and the “concentration of TCS, TCS-G, TCS-Sulfate” value ([1]; Cecum digesta, 1 ppm TCS in diet 4 weeks) was 0 pmol/mg. The “concentration of TCS, TCS-G, TCS-Sulfate” value ([1]; Cecum digesta, 10 ppm TCS in diet 4 weeks) was 0.02 pmol/mg and 0 pmol/mg and 0.01 pmol/mg, the “concentration of TCS, TCS-G, TCS-Sulfate” value ([1]; Cecum digesta, 80 ppm TCS in diet 4 weeks) was 0.03 pmol/mg and 0.05 pmol/mg and 0.08 pmol/mg and 0.06 pmol/mg and 0.13 pmol/mg and the “concentration of TCS, TCS-G, TCS-Sulfate” value ([1]; Colon (digesta), 80 ppm TCS via diet 4 weeks) was 1.16 pmol/mg and 1.00 pmol/mg and 1.32 pmol/mg and 1.31 pmol/mg and 2.15 pmol/mg and 0.67 pmol/mg and 0.75 pmol/mg and 2.57 pmol/mg and 1.48 pmol/mg and 2.39 pmol/mg. For the same compound, the “concentration of TCS, TCS-G, TCS-Sulfate” value ([1]; Colon digesta, 1 ppm TCS in diet 4 weeks) was 0 pmol/mg, the “concentration of TCS, TCS-G, TCS-Sulfate” value ([1]; Colon digesta, 10 ppm TCS in diet 4 weeks) was 0.2 pmol/mg and 0 pmol/mg and 0.03 pmol/mg and 0.01 pmol/mg and 0.05 pmol/mg and 0.02 pmol/mg and the “concentration of TCS, TCS-G, TCS-Sulfate” value ([1]; Colon digesta, 80 ppm TCS in diet 4 weeks) was 0.3 pmol/mg and 0.21 pmol/mg and 0.1 pmol/mg and 0.13 pmol/mg and 0.22 pmol/mg and 0.09 pmol/mg and 0.81 pmol/mg and 0.37 pmol/mg. For the same compound, the “concentration of TCS, TCS-G, TCS-Sulfate” value ([1]; Feces, 1 ppm TCS in diet 4 weeks) was 0.05 pmol/mg, the “concentration of TCS, TCS-G, TCS-Sulfate” value ([1]; Feces, 10 ppm TCS in diet 4 weeks) was 0.1 pmol/mg and 0.16 pmol/mg and the “concentration of TCS, TCS-G, TCS-Sulfate” value ([1]; Feces, 80 ppm TCS in diet 4 weeks) was 3.27 pmol/mg and 1.08 pmol/mg. For the same compound, the “Level in Cecum” value ([1]; Fig. S3b, Cecum, individual mice No. 1-10 per row) was 0.53 and 0.56 and 0.38 and 0.61 and 0.54 and 0.12 and 0.13 and 0.09 and 0.35 and 0.29, the “Level in Colon” value ([1]; Fig. S3b, Colon, individual mice No. 1-10 per row) was 0.78 and 1.13 and 3.01 and 1.95 and 2.87 and 1.28 and 1 and 1.68 and 1.44 and 2.3 and the “Level in SI 1st section” value ([1]; Fig. S3b, SI 1st section, individual mice No. 1-10 per row) was 7.35 and 7.33 and 7.48 and 7.82 and 9.31 and 9.27 and 9.71 and 4.38 and 7.68 and 8.04. The “Level in SI 2nd section” value ([1]; Fig. S3b, SI 2nd section, individual mice No. 1-10 per row) was 6.24 and 6.6 and 5.34 and 6.55 and 6.34 and 6.37 and 6.86 and 2.98 and 4.48 and 5.78, the “Level in SI 3rd section” value ([1]; Fig. S3b, SI 3rd section, individual mice No. 1-10 per row) was 5.62 and 5.7 and 3.67 and 5.46 and 7.7 and 5.86 and 4.93 and 2.15 and 4.34 and 5.06 and the “Level in SI 4th section” value ([1]; Fig. S3b, SI 4th section, individual mice No. 1-10 per row) was 7.25 and 6.61 and 6.48 and 10.63 and 8.75 and 6.52 and 6.94 and 2.9 and 7.06. For the same compound, the “concentration of TCS, TCS-G, TCS-Sulfate” value ([1]; Heart, 80 ppm TCS via diet 4 weeks) was 10.90 pmol/mg and 8.11 pmol/mg and 9.20 pmol/mg and 10.24 pmol/mg, the “concentration of TCS, TCS-G, TCS-Sulfate” value ([1]; Liver, 80 ppm TCS via diet 4 weeks) was 37.26 pmol/mg and 31.81 pmol/mg and 21.91 pmol/mg and 24.89 pmol/mg and 30.95 pmol/mg and 12.68 pmol/mg and 35.36 pmol/mg and 32.58 pmol/mg and 32.38 pmol/mg and 20.28 pmol/mg and the “concentration of TCS, TCS-G, TCS-Sulfate” value ([1]; SI 1st section (digesta), 80 ppm TCS via diet 4 weeks) was 7.33 pmol/mg and 7.48 pmol/mg and 7.82 pmol/mg and 9.31 pmol/mg. For the same compound, the “concentration of TCS, TCS-G, TCS-Sulfate” value ([1]; SI 2nd section (digesta), 80 ppm TCS via diet 4 weeks) was 6.37 pmol/mg and 6.86 pmol/mg and 2.98 pmol/mg and 4.48 pmol/mg and 5.78 pmol/mg and 6.24 pmol/mg and 6.60 pmol/mg and 5.34 pmol/mg and 6.55 pmol/mg and 6.34 pmol/mg, the “concentration of TCS, TCS-G, TCS-Sulfate” value ([1]; SI 3rd section (digesta), 80 ppm TCS via diet 4 weeks) was 5.86 pmol/mg and 4.93 pmol/mg and 2.15 pmol/mg and 4.34 pmol/mg and 5.06 pmol/mg and 5.62 pmol/mg and 5.70 pmol/mg and 3.67 pmol/mg and 5.46 pmol/mg and 7.70 pmol/mg and the “concentration of TCS, TCS-G, TCS-Sulfate” value ([1]; SI 4th section (digesta), 80 ppm TCS via diet 4 weeks) was 6.52 pmol/mg and 6.94 pmol/mg and 2.90 pmol/mg and 6.61 pmol/mg and 7.06 pmol/mg and 7.25 pmol/mg and 6.48 pmol/mg and 10.63 pmol/mg and 8.75 pmol/mg. For the same compound, the “share of TCS metabolites found” value ([1]; digesta of the 4th section of the mouse small intestine, 80 ppm TCS via diet 4 weeks) was 7.7%, the “share of TCS metabolites found” value ([1]; fecal content, 80 ppm TCS via diet 4 weeks) was 0.2% and the “Profile in urine (%)” value ([2]; TCS-exposed human subjects, n=7 urine samples) was 0.04%. The “Profile in stool (%)” value ([2]; TCS-exposed human subjects, n=23 stool samples) was 0.0365%, the “TCS metabolites in human stool” value [2, 4] was 0.311 pmol/ g stool and < LOD and the “TCS metabolites in human urine” value [2, 4] was 0.071 nM urine and < LOD (3×). For the same compound, the “TCS metabolites in human stool” value ([2]; treatment time 1 month) was 1.344 pmol/ g stool and < LOD (3×) and 0.342 pmol/ g stool and 0.381 pmol/ g stool, the “TCS metabolites in human urine” value ([2]; treatment time 1 month) was 0.470 nM urine and the “TCS metabolites in human stool” value ([2]; treatment time 2 months) was “< LOD (4×) and 0.999 pmol/ g stool”. For the same compound, the “TCS metabolites in human urine” value ([2]; treatment time 2 months) was 0.522 nM urine, the “TCS metabolites in human stool” value ([2]; treatment time 3 months) was 0.987 pmol/ g stool and < LOD (5×) and the “TCS metabolites in human urine” value ([2]; treatment time 3 months) was 0.157 nM urine. For the same compound, the “TCS metabolites in human stool” value ([2]; treatment time 4 months) was 0.971 pmol/ g stool and < LOD (4×) and 0.236 pmol/ g stool, the “TCS metabolites in human urine” value ([2]; treatment time 4 months) was 0.257 nM urine and < LOD and 0.689 nM urine and 0.388 nM urine and the “average molar concentration ratio” value ([2]; human stool) was 0.0%. For the same compound, the “average molar concentration ratio” value ([2]; human urine) was 0.0%.

With `O=C(O)[C@H]1OC(Oc2cc(Cl)ccc2Oc2ccc(Cl)cc2Cl)[C@H](O)[C@@H](O)[C@@H]1O` (stereo partly shown) [TCSG] the TCSG turnover rate ([3]; human fecal extract sample F2) was 0.0489 µM/s and 0.0506 µM/s and 0.0488 µM/s, the TCSG turnover rate ([3]; human fecal extract sample F3) was 0.0556 µM/s and 0.0559 µM/s and 0.0553 µM/s and the TCSG turnover rate ([3]; human fecal extract sample F4) was 0.036 µM/s and 0.0272 µM/s and 0.0271 µM/s. For the same compound, the TCSG turnover rate ([3]; human fecal extract sample M1) was 0.063 µM/s and 0.0659 µM/s and 0.0613 µM/s, the TCSG turnover rate ([3]; human fecal extract sample M2) was 0.0168 µM/s and 0.0179 µM/s and 0.0157 µM/s and the TCSG turnover rate ([3]; human fecal extract sample M3) was 0.0438 µM/s and 0.0439 µM/s and 0.0436 µM/s.
